Test results reported in the supplement of paper PMC10307832.

Assays:
Assay in all cases: relative viability (nuclei count vs DMSO), 5 days (fraction); higher = more cells survive
NCI-H1666 = system: NCI-H1666
Procedure, shortened: (§1)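 Lung cancer cell lines in 1536-well plates were dosed by pin tool the day after seeding, either with one drug alone or with a fixed anchor-drug dose plus five library-drug doses (not always all listed) in √10 steps. After 5 days, cells were fixed and their nuclei stained in one step (final 0.05% Triton X-100, 1% formaldehyde, 1 ug/ml Hoechst), then counted on 4× images. Relative viability is the nuclei count in treated wells divided by that in vehicle wells. Values are medians of duplicate plates.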

PC-3 [JPC-3] = system: PC-3 [JPC-3]
Procedure, shortened: as §1

NCI-H650 = system: NCI-H650
Procedure, shortened: as §1

NCI-H2023 = system: NCI-H2023
Procedure, shortened: as §1

NCI-H2170 = system: NCI-H2170
Procedure, shortened: as §1

NCI-H441 = system: NCI-H441
Procedure, shortened: as §1

NCI-H1755 = system: NCI-H1755
Procedure, shortened: as §1

NCI-H23 = system: NCI-H23
Procedure, shortened: as §1

NCI-H1395 = system: NCI-H1395
Procedure, shortened: as §1

LOU-NH91 = system: LOU-NH91
Procedure, shortened: as §1

A-427 = system: A-427
Procedure, shortened: as §1

LCLC-97TM1 = system: LCLC-97TM1
Procedure, shortened: as §1

LU99A = system: LU99A
Procedure, shortened: as §1

NCI-H2126 = system: NCI-H2126
Procedure, shortened: as §1

NCI-H1793 = system: NCI-H1793
Procedure, shortened: as §1

SK-LU-1 = system: SK-LU-1
Procedure, shortened: as §1

NCI-H1915 = system: NCI-H1915
Procedure, shortened: as §1

BEN = system: BEN
Procedure, shortened: as §1

LXF-289 = system: LXF-289
Procedure, shortened: as §1

NCI-H322M = system: NCI-H322M
Procedure, shortened: as §1

NCI-H460 = system: NCI-H460
Procedure, shortened: as §1

NCI-H1944 = system: NCI-H1944
Procedure, shortened: as §1

HARA = system: HARA
Procedure, shortened: as §1

What does the source list for `O=C(O)CCCCC(CCSCc1ccccc1)SCc1ccccc1` (centres undefined) [CPI-613] + CC(=O)Nc1cccc(-n2c(=O)n(C3CC3)c(=O)c3c(Nc4ccc(I)cc4F)n(C)c(=O)c(C)c32)c1 [Trametinib] (partner 0.02 µM)?
relative viability (NCI-H1666; first compound 5 µM): 0.888; relative viability (NCI-H1666; first compound 15.81 µM): 0.821; relative viability (NCI-H1666; first compound 50 µM): 0.796; relative viability (NCI-H1666; first compound 158.11 µM): 0.488; relative viability (NCI-H1666; first compound 500 µM): 0.394; relative viability (PC-3 [JPC-3]; first compound 5 µM): 0.659; relative viability (PC-3 [JPC-3]; first compound 50 µM): 0.712; relative viability (PC-3 [JPC-3]; first compound 158.11 µM): 0.321; relative viability (PC-3 [JPC-3]; first compound 500 µM): 0.433; relative viability (NCI-H650; first compound 5 µM): 0.969; relative viability (NCI-H650; first compound 15.81 µM): 0.994; relative viability (NCI-H650; first compound 50 µM): 0.849; relative viability (NCI-H650; first compound 158.11 µM): 0.929; relative viability (NCI-H650; first compound 500 µM): 0.889; relative viability (NCI-H2023; first compound 5 µM): 0.57; relative viability (NCI-H2023; first compound 15.81 µM): 0.605; relative viability (NCI-H2023; first compound 50 µM): 0.499; relative viability (NCI-H2023; first compound 158.11 µM): 0.0445; relative viability (NCI-H2023; first compound 500 µM): 0.0048; relative viability (NCI-H2170; first compound 5 µM): 0.95; relative viability (NCI-H2170; first compound 15.81 µM): 0.968; relative viability (NCI-H2170; first compound 50 µM): 0.892; relative viability (NCI-H2170; first compound 158.11 µM): 0.686; relative viability (NCI-H2170; first compound 500 µM): 0.546; relative viability (NCI-H441; first compound 5 µM): 0.426; relative viability (NCI-H441; first compound 15.81 µM): 0.429; relative viability (NCI-H441; first compound 50 µM): 0.343; relative viability (NCI-H441; first compound 158.11 µM): 0.322; relative viability (NCI-H441; first compound 500 µM): 0.003; relative viability (NCI-H1755; first compound 5 µM): 0.712; relative viability (NCI-H1755; first compound 15.81 µM): 0.775; relative viability (NCI-H1755; first compound 50 µM): 0.75; relative viability (NCI-H1755; first compound 158.11 µM): 0.702; relative viability (NCI-H1755; first compound 500 µM): 0.69; relative viability (NCI-H23; first compound 5 µM): 0.394; relative viability (NCI-H23; first compound 15.81 µM): 0.25; relative viability (NCI-H23; first compound 50 µM): 0.393; relative viability (NCI-H23; first compound 158.11 µM): 0.11; relative viability (NCI-H23; first compound 500 µM): 0.0106; relative viability (NCI-H1395; first compound 5 µM): 0.901; relative viability (NCI-H1395; first compound 15.81 µM): 1.05; relative viability (NCI-H1395; first compound 50 µM): 0.928; relative viability (NCI-H1395; first compound 158.11 µM): 1.04; relative viability (NCI-H1395; first compound 500 µM): 0.917; relative viability (LOU-NH91; first compound 5 µM): 0.767; relative viability (LOU-NH91; first compound 15.81 µM): 0.723; relative viability (LOU-NH91; first compound 50 µM): 0.775; relative viability (LOU-NH91; first compound 158.11 µM): 0.775; relative viability (LOU-NH91; first compound 500 µM): 0.674; relative viability (A-427; first compound 5 µM): 0.716; relative viability (A-427; first compound 15.81 µM): 0.766; relative viability (A-427; first compound 50 µM): 0.682; relative viability (A-427; first compound 158.11 µM): 0.476; relative viability (A-427; first compound 500 µM): 0.391; relative viability (LCLC-97TM1; first compound 5 µM): 0.202; relative viability (LCLC-97TM1; first compound 15.81 µM): 0.162; relative viability (LCLC-97TM1; first compound 50 µM): 0.153; relative viability (LCLC-97TM1; first compound 158.11 µM): 0.0713; relative viability (LCLC-97TM1; first compound 500 µM): 0.0622; relative viability (LU99A; first compound 5 µM): 0.51; relative viability (LU99A; first compound 15.81 µM): 0.524; relative viability (LU99A; first compound 50 µM): 0.461; relative viability (LU99A; first compound 158.11 µM): 0.338; relative viability (LU99A; first compound 500 µM): 0.357; relative viability (NCI-H2126; first compound 5 µM): 0.528; relative viability (NCI-H2126; first compound 15.81 µM): 0.538; relative viability (NCI-H2126; first compound 50 µM): 0.615; relative viability (NCI-H2126; first compound 158.11 µM): 0.232; relative viability (NCI-H2126; first compound 500 µM): 0.193; relative viability (NCI-H1793; first compound 5 µM): 0.429; relative viability (NCI-H1793; first compound 15.81 µM): 0.413; relative viability (NCI-H1793; first compound 50 µM): 0.405; relative viability (NCI-H1793; first compound 158.11 µM): 0.225; relative viability (NCI-H1793; first compound 500 µM): 0.0839; relative viability (SK-LU-1; first compound 5 µM): 0.452; relative viability (SK-LU-1; first compound 15.81 µM): 0.477; relative viability (SK-LU-1; first compound 50 µM): 0.365; relative viability (SK-LU-1; first compound 158.11 µM): 0.366; relative viability (SK-LU-1; first compound 500 µM): 0.129; relative viability (NCI-H1915; first compound 5 µM): 0.292; relative viability (NCI-H1915; first compound 15.81 µM): 0.284; relative viability (NCI-H1915; first compound 50 µM): 0.299; relative viability (NCI-H1915; first compound 158.11 µM): 0.216; relative viability (NCI-H1915; first compound 500 µM): 0.148; relative viability (BEN; first compound 5 µM): 1.14; relative viability (BEN; first compound 15.81 µM): 0.976; relative viability (BEN; first compound 50 µM): 0.958; relative viability (BEN; first compound 158.11 µM): 0.804; relative viability (BEN; first compound 500 µM): 0.905; relative viability (LXF-289; first compound 5 µM): 0.653; relative viability (LXF-289; first compound 15.81 µM): 0.659; relative viability (LXF-289; first compound 50 µM): 0.665; relative viability (LXF-289; first compound 158.11 µM): 0.446; relative viability (LXF-289; first compound 500 µM): 0.572; relative viability (NCI-H322M; first compound 5 µM): 0.427; relative viability (NCI-H322M; first compound 15.81 µM): 0.485; relative viability (NCI-H322M; first compound 50 µM): 0.454; relative viability (NCI-H322M; first compound 158.11 µM): 0.516; relative viability (NCI-H322M; first compound 500 µM): 0.514; relative viability (NCI-H460; first compound 5 µM): 0.128; relative viability (NCI-H460; first compound 15.81 µM): 0.132; relative viability (NCI-H460; first compound 50 µM): 0.116; relative viability (NCI-H460; first compound 158.11 µM): 0.0278; relative viability (NCI-H460; first compound 500 µM): 0.0229; relative viability (NCI-H1944; first compound 5 µM): 0.427; relative viability (NCI-H1944; first compound 15.81 µM): 0.398; relative viability (NCI-H1944; first compound 50 µM): 0.412; relative viability (NCI-H1944; first compound 158.11 µM): 0.259; relative viability (NCI-H1944; first compound 500 µM): 0.28; relative viability (HARA; first compound 5 µM): 0.805; relative viability (HARA; first compound 15.81 µM): 0.57; relative viability (HARA; first compound 50 µM): 0.849; relative viability (HARA; first compound 158.11 µM): 0.362; relative viability (HARA; first compound 500 µM): 0.0485
